# Experimental data reported in patent publication US20240067637A1, “NAPHTHYRIDINE AND PYRIDO[3,4-c]PYRIDAZINE DERIVATIVES AS GABAA ALPHA 5 RECEPTOR MODULATORS” (Richter Gedeon Nyrt., priority 2020, published 2024).
# Target: human recombinant GABAA α5β3γ2 receptor (Homo sapiens (Human), UniProt P18507+P31644)
# Test: Radioligand ([3H]Ro151788) receptor binding assay
# Details: membranes of HEK cells expressing human recombinant GABAA α5β3γ2; 0.5 nM [3H]Ro151788; 60 minutes at 4° C.; read-out: hGABAA α5 Ki
# Protocol: The GABAA α5β3γ2 protein used for the receptor binding assay was derived from membranes produced from HEK cells (Millipore CYL3073) expressing the human recombinant GABAA α5β3γ2 receptor. Cells were stored and cultured in-house according to the instructions provided by the vendor (Millipore). Cell pellet was homogenized in 10 times modified Krebs Henseleit buffer (membrane preparation buffer): 20 mM Tris, 120 mM NaCl, 100 mM KCl, 25 mM CaCl2 and 25 mM MgCl2 pH=7.4 at 4° C. using Ultra Turrax (Janke&Kunkel) maximal speed for 15 seconds. The homogenate was centrifuged at 40,000 g for 30 minutes at 4° C. Supernatant was discarded and the resulting pellet was washed in membrane preparation buffer. Pellet was resuspended in membrane preparation buffer and aliquots of 1.4 mL ampules were stored at −70° C. until use.
# Receptor binding assays were performed in 96-well format in deep-well plates. For each 96-well plate one ampule of membrane homogenate was thawed and diluted in binding buffer (50 mM Tris pH=7.4, 100 mM KCl) and 200 μL was dispensed into each well. Radioligand [^3H]Ro151788 (Perkin Elmer: NET757250UC) was prepared in binding buffer and added to each well in 50 μL volume to give final concentration of 0.5 nM. Test compounds in suitable concentration(s) were added in additional 50 μL. The final assay volume was 300 μL. Incubation was carried out for 60 minutes at 4° C. For non-specific binding 10 μM unlabeled diazepam was used. After incubation samples were filtered over UniFilter® GF/BT using Filtermate Harvester (Perkin Elmer) and washed with 5×1 mL binding buffer. The plate was dried at 40° C. for an hour and 40 μL Microscint (Perkin Elmer) scintillation cocktail was added to each well. The plate was read in Microbeta (Perkin Elmer).
# The specific radioligand binding (SB) was defined as the difference between total binding (Tot) and the non-specific binding (NSB). Results are expressed as a percent inhibition of specific binding obtained in the presence of compound of interest.
# For IC50 and Ki determination a minimum of six drug concentrations in triplicate were used. IC50 values (i.e. concentration of compound giving 50% inhibition of specific binding) were calculated from concentration-displacement curves by sigmoidal fitting using Origin 7.5 software. Ki values (i.e. inhibition constants) were calculated using the Cheng-Prusoff equation Ki=IC50/[1+(L/KD)], where [L] is the radioligand concentration and KD the affinity of the labelled ligand for receptor. KD was determined from the Saturation analyses.
# Sequence of human recombinant GABAA α5β3γ2 receptor (P31644 32-462): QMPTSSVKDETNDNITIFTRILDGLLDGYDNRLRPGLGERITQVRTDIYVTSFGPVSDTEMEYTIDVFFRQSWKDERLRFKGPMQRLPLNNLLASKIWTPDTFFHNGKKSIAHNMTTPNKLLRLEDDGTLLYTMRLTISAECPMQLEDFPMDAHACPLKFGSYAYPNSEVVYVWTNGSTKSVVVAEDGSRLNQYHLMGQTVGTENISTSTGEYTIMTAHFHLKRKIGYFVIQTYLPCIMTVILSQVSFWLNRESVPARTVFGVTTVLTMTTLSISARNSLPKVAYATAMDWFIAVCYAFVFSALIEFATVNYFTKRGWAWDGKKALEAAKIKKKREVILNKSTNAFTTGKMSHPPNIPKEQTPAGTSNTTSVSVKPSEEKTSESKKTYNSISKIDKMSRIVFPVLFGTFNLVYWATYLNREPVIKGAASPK
# Sequence of human recombinant GABAA α5β3γ2 receptor (P28472 26-473 partner): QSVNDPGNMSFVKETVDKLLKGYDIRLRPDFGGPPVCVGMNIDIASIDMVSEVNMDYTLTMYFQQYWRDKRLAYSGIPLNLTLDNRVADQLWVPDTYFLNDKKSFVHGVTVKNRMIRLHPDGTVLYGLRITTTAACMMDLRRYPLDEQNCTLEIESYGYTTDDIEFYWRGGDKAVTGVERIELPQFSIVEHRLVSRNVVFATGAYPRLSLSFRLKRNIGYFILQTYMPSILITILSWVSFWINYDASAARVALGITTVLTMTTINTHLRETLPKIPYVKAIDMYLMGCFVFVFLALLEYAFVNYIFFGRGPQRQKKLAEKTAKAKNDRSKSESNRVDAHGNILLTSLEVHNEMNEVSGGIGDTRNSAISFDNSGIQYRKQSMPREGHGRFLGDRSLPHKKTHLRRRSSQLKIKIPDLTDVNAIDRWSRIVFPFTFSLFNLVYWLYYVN
# Sequence of human recombinant GABAA α5β3γ2 receptor (P18507 40-475): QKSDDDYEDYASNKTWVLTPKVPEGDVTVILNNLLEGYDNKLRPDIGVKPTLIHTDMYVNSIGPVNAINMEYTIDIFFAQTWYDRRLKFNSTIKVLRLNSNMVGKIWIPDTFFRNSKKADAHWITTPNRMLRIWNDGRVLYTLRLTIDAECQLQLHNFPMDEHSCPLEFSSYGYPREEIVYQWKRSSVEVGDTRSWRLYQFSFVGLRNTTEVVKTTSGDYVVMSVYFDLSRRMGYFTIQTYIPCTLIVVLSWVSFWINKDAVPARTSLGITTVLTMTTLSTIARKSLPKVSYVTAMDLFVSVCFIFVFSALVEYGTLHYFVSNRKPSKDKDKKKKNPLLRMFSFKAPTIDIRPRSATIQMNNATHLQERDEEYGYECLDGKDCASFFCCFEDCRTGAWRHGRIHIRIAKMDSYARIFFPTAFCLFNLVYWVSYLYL
row,Structure (SMILES),Ki [nM]
1,"Cc1nnn(-c2ccc(C(F)(F)F)nc2)c1COc1cc2c(cn1)CN(C(=O)C(C)C)CC2 [Example 50, 2-methyl-1-[6-({4-methyl-1-[6-(trifluoromethyl)pyridin-3-yl]-1H-1,2,3-triazol-5-yl}methoxy)-1,2,3,4-tetrahydro-2,7-naphthyridin-2-yl]propan-1-one]",44
2,"CC(=O)N1CCc2cc(OCc3c(C)nnn3-c3ccc(C(F)(F)F)nc3)nnc2C1 [Example 53, 1-[3-({4-methyl-1-[6-(trifluoromethyl)pyridin-3-yl]-1H-1,2,3-triazol-5-yl}methoxy)-5,8-dihydropyrido[3,4-c]pyridazin-7(6H)-yl]ethanone]",99.1
3,"Cc1ccc(-c2noc(C)c2COc2cc3c(nn2)CN(C(=O)NC2CC2)CC3)cn1 [Example 33, N-cyclopropyl-3-{[5-methyl-3-(6-methylpyridin-3-yl)-1,2-oxazol-4-yl]methoxy}-5H,6H,7H,8H-pyrido[3,4-c]pyridazine-7-carboxamide]",2.2
4,"Cc1nnn(-c2ccc(C(F)(F)F)nc2)c1COc1cc2c(cn1)CN(C(=O)CF)CC2 [Example 49, 2-fluoro-1-[6-({4-methyl-1-[6-(trifluoromethyl)pyridin-3-yl]-1H-1,2,3-triazol-5-yl}methoxy)-1,2,3,4-tetrahydro-2,7-naphthyridin-2-yl]ethan-1-one]",15
5,"CC(=O)N1CCc2cc(OCc3c(-c4ccc(C(F)(F)F)nc4)noc3C)nnc2C1 [Example 34, 1-[3-({5-methyl-3-[6-(trifluoromethyl)pyridin-3-yl]-1,2-oxazol-4-yl}methoxy)-5H,6H,7H,8H-pyrido[3,4-c]pyridazin-7-yl]ethan-1-one]",8.1
6,"CCC(=O)N1CCc2cc(OCc3c(-c4ccc(C)nc4)noc3C)nnc2C1 [Example 29, 1-(3-{[5-methyl-3-(6-methylpyridin-3-yl)-1,2-oxazol-4-yl]methoxy}-5H,6H,7H,8H-pyrido[3,4-c]pyridazin-7-yl)propan-1-one]",6
7,"CC(=O)N1CCc2cc(OCc3c(C)nnn3-c3ccc(C(F)F)nc3)ncc2C1 [Example 55, 1-[6-({1-[6-(difluoromethyl)pyridin-3-yl]-4-methyl-1H-1,2,3-triazol-5-yl}methoxy)-3,4 dihydro-2,7-naphthyridin-2(1H)-yl]ethanone]",1.1
8,"CC(=O)N1CCc2cc(OCc3c(C)nnn3-c3ccc(C(F)(F)F)nc3)ncc2C1 [Example 47, 1-[6-({4-methyl-1-[6-(trifluoromethyl)pyridin-3-yl]-1H-1,2,3-triazol-5-yl}methoxy)-1,2,3,4-tetrahydro-2,7-naphthyridin-2-yl]ethan-1-one]",25
9,"Cc1ccc(-c2noc(C)c2COc2cc3c(cn2)CN(C(=O)[C@H]2CCC(=O)N2C)CC3)cn1 [Example 21, (5R)-1-methyl-5-(6-{[5-methyl-3-(6-methylpyridin-3-yl)-1,2-oxazol-4-yl]methoxy}-1,2,3,4-tetrahydro-2,7-naphthyridine-2-carbonyl)pyrrolidin-2-one]",5.7
10,"Cc1ccc(-c2noc(C)c2COc2cc3c(cn2)CN(C(=O)C2CC(=O)N(C(C)C)C2)CC3)cn1 (stereo not drawn) [Example 16, 4-(6-{[5-methyl-3-(6-methylpyridin-3-yl)-1,2-oxazol-4-yl]methoxy}-1,2,3,4-tetrahydro-2,7-naphthyridine-2-carbonyl)-1-(propan-2-yl)pyrrolidin-2-one]",11
11,"Cc1ccc(-n2nnc(C)c2COc2cc3c(cn2)CN(C(=O)CC(C)C)CC3)cn1 [Example 41, 3-methyl-1-(6-{[4-methyl-1-(6-methylpyridin-3-yl)-1H-1,2,3-triazol-5-yl]methoxy}-1,2,3,4-tetrahydro-2,7-naphthyridin-2-yl)butan-1-one]",48
12,"CC(=O)N1CCc2cc(OCc3c(-c4ccc(C)nc4)noc3C)nnc2C1 [Example 24, 1-(3-{[5-methyl-3-(6-methylpyridin-3-yl)-1,2-oxazol-4-yl]methoxy}-5H,6H,7H,8H-pyrido[3,4-c]pyridazin-7-yl)ethan-1-one]",2.3
